Source: US11690825B2 (BOARD OF REGENTS, THE UNIVERSITY OF TEXAS SYSTEM, priority 2016, dated 2023)

Assays:
[1] = tested on: arteries (responsiveness to the constrictor activity of phenylephrine); test: Vasoactivity bioassay: ability of 20-HETE to enhance responsiveness of arteries to phenylephrine (PE) constriction; conditions: for Fold Change from 20-HETE: negative values = 20-HETE antagonists, positive values = agonists
[2] = tested on: mouse models of hypertension; test: DOX mouse model of hypertension: blood pressure, ACE expression, vascular remodeling; type: in vivo
Procedure: Systolic blood pressure measurements were taken using the CODA tail-cuff system (Kent Scientific), which utilizes volume pressure recording sensor technology. Mice were acclimated to the machine for one week prior to day 0 and blood pressure was monitored throughout the length of the experiment. […] At the end of the experiment, mice were anesthetized with ketamine (70 mg/kg) and xylazine (70 mg/kg) and laporotomy was performed. Preglomerular arteries were microdissected and collected for western blot analysis, lipid extraction and functional studies. Measurements of Media Thickness, Media to Lumen Ratio, and Medial Cross-Sectional Area (CSA) Segments of renal interlobar arteries were dissected and mounted on a pressurized myograph and equilibrated for 1 h in oxygenated krebs buffer at 37° C. The operator was blinded to treatments except for the blood pressure range of the animal. Lumen diameters from normotensive animals were determined at 100 mmHg and hypertensive animals at 140 mmHg. Measurements of outer diameter (OD) and inner diameter (ID) under passive conditions were used to calculate media thickness [(OD−ID)/2], media to lumen ratio (OD−ID)/ID], and medial cross-sectional area [CSA=(π/4)×(OD2−ID2)] […] Expression of ACE. […] SDS-polyacrylamide gels were transferred to Tran-Blot Turbo Mini PVDF membranes (Bio-Rad, Hercules, Calif.) followed by blocking buffer (Li-Cor, Lincoln, Nebr.) and subsequent incubation with primary and secondary antibodies.

[3] = tested on: membrane fractions of human endothelial cells (EC); test: 20-APheDa UV crosslinking / click-chemistry band competition; type: binding; conditions: excess amounts of competitor
Procedure: When incubated with membrane fractions of human endothelial cells (EC) followed by 15 min of UV (365 nm) crosslinking and 1 h incubation with the click reagent (DBCO-IRdye 800CW, LiCor), an intense band of approximately 47-49 kDa was detected (FIG. 8c).

ACE = ACE transcription (mRNA) in endothelial cells; type: cell-based, human; conditions: EC
[4] = tested on: TAFI, thrombin-activated fibrinolysis inhibitor; conditions: endothelial cells; cited from earlier work
[5] = tested on: NO bioavailability and ACE expression; conditions: cited from earlier work
EGFR = EGFR tyrosine phosphorylation and c-Src association in EC
GPR75 [6] = molecular target: T1, GPR75 (Homo sapiens, UniProt O95800); test: β-arrestin GPCR recruitment assay, GPR75 expressed in CHO cells; type: cell-based; parameters: expressed in transfected cells; host or cells: CHO cells
Description: β-arrestin represents a robust and widely used screening technology for GPCR-ligand pairing. GPCR-mediated β-arrestin recruitment is also recognized as a distinct intracellular signaling pathway, and ligand-receptor interactions may show a bias toward β-arrestin over classical GPCR signaling pathways.
Target sequence in this assay (O95800 whole entry): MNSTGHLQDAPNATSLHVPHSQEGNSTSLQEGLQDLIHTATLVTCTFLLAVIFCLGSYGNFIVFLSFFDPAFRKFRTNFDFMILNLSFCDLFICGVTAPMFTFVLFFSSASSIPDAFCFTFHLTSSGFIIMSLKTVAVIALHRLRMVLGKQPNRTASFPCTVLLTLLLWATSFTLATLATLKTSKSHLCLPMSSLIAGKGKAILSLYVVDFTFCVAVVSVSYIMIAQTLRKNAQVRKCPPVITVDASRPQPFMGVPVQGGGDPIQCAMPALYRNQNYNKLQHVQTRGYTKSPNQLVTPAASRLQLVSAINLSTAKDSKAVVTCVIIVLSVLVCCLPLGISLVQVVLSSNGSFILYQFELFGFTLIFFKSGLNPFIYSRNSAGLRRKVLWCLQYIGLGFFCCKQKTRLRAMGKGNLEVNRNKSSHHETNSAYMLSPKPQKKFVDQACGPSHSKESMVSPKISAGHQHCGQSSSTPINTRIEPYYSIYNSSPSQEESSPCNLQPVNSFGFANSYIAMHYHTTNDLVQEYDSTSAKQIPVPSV

GPR75 [7] = molecular target: T1, GPR75; test: GPR75 immunoprecipitation in EC (HMVEC); type: cell-based; parameters: endogenous in cells; host or cells: HMVEC (human microvascular endothelial cells); EA.hy926 lysate is also mentioned; conditions: 10 nM for 5 min
Description: Immunoprecipitation of GPR75 in EC further indicated its association with Gαq/11, GIT1 and HIC-5 (FIG. 11a). […] No change in GPR75-Gαq/11 association was detected in EC (FIG. 11b).
Immunoprecipitation. […] Western Blot Analysis.
Target sequence in this assay (O95800 whole entry): as above
Target sequence in this assay (Q9Y2X7 whole entry partner): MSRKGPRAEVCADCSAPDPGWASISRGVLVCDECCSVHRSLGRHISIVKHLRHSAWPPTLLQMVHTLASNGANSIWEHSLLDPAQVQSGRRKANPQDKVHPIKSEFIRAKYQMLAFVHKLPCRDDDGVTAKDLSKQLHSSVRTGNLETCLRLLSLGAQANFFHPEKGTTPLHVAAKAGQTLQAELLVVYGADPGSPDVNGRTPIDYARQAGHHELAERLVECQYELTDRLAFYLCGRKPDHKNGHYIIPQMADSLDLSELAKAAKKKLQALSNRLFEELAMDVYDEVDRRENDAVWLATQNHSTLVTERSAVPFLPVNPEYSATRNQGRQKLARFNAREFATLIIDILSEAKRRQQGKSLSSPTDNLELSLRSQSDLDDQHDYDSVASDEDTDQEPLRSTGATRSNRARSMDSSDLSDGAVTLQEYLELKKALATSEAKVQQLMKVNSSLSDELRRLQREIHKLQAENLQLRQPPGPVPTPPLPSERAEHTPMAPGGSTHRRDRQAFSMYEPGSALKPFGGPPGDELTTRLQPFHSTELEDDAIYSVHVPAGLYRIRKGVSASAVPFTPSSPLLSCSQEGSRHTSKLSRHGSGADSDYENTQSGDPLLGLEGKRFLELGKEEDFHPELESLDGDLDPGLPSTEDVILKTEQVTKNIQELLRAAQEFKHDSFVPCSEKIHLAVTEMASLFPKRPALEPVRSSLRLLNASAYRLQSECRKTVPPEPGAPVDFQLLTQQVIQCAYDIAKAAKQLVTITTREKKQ

Cyp4a14−/− mice = test: High-fat diet in Cyp4a14−/− mice overexpressing 20-HETE; type: in vivo, mouse
JCR rats = test: Coronary collateral growth in rat model of metabolic syndrome; type: in vivo; conditions: JCR rats compared with SD rats
Water solubility = type: physicochemical
Description: As used herein, the term “water soluble” means that the compound dissolves in water at least to the extent of 0.010 mole/liter or is classified as soluble according to literature precedence.

[8] = Cyp4a14−/− mice on a high-fat diet

[N-]=[N+]=N[C@@H](CO)CCC/C=C\CCCCCCC/C=C\CCCC(=O)[O-].[Na+] [Analog 6, Sodium 19(R)-azido-20-hydroxyeicosa-5(Z),14(Z)-dienoate]
Fold Change from 20-HETE ([1]; fold change of EC50 to PE): 0.50

C[C@@H](O)CCC/C=C\CCCCCCC/C=C\CCCC(=O)N[C@@H](CC(=O)[O-])C(=O)[O-].[Na+].[Na+] [Analog 10, Disodium (19(R)-hydroxyeicosa-5(Z),14(Z)-dienoyl)-L-aspartate]
Fold Change from 20-HETE ([1]; fold change of EC50 to PE): −2.03

CC(O)CCC/C=C\CCCCCCCCCCCCC(=O)[O-].[Na+] (centres unmarked) [Analog 12, Sodium 19-hydroxyeicosa-14(Z)-enoate]
Fold Change from 20-HETE ([1]; fold change of EC50 to PE): 0.79

C[C@H](O)CCC/C=C\CCCCCCC/C=C\CCCC(=O)N[C@@H](CC(=O)[O-])C(=O)[O-].[Na+].[Na+] [Analog 9, disodium (19(S)-hydroxyeicosa-5(Z),14(Z)-dienoyl)-L-aspartate]
Fold Change from 20-HETE ([1]; fold change of EC50 to PE): −0.59

O=C([O-])CNC(=O)CCC/C=C\CCCCCCC/C=C\CCCCO.[Na+] [Analog 20, sodium (19-hydroxynonadeca-5(Z),14(Z)-dienoyl)glycinate]
Fold Change from 20-HETE ([1]; fold change of EC50 to PE): −0.74

O=C(O)CNC(=O)CCCC/C=C\CCCCCCC/C=C\CCCCO [20-6,15-HEDGE, 2-(20-hydroxyeicosa-6(Z),15(Z)-dienamido)acetic acid]
ACE expression in preglomerular microvessels (PGMV) ([2]; compared with lisinopril and losartan): decreases ACE expression
systolic blood pressure ([2]; in combination with DOX, several time points): decreases systolic blood pressure as effectively as the ACE inhibitors lisinopril and losartan
vascular remodeling ([2]; mouse, in vivo): decreasing vascular remodeling

[N-]=[N+]=NC[C@H](O)CCC/C=C\CCCCCCC/C=C\CCCC(=O)[O-].[Na+] [Analog 3, Sodium 20-azido-19(R)-hydroxyeicosa-5(Z),14(Z)-dienoate]
Fold Change from 20-HETE ([1]; fold change of EC50 to PE): −5.69

CC(O)CCCCCCCCCCCC/C=C\CCCC(=O)NCC(=O)[O-].[Na+] (centres unmarked) [Analog 13, Sodium (19-hydroxyeicosa-5(Z)-enoyl)glycinate]
Fold Change from 20-HETE ([1]; fold change of EC50 to PE): −2.19

CCCCC/C=C\C[C@H](O)/C=C/C=C\C/C=C\CCCC(=O)O [12(S)-HETE, 12(S)-hydroxyeicosa-5(Z),8(Z),10(E),14(Z)-tetraenoic acid]
competition with formation of the 47-49 kDa 20-APheDa band [3]: not

CCC(O)CC/C=C\CCCCCCC/C=C\CCCC(=O)NCC(=O)[O-].[Na+] (centres unmarked) [Analog 16, Sodium (18-hydroxyeicosa-5(Z),14(Z)-dienoyl)glycinate]
Fold Change from 20-HETE ([1]; fold change of EC50 to PE): −1.13

CC(C)(O)CCC/C=C\CCCCCCC/C=C\CCCC(=O)NCC(=O)[O-].[Na+] [Analog 18, Sodium 2-(19-hydroxy-19-methyleicosa-5(Z),14(Z)-dienamido)acetate]
Fold Change from 20-HETE ([1]; fold change of EC50 to PE): −1.16

C[C@H](O)CCC/C=C\CCCCCCC/C=C\CCCC(=O)[O-].[Na+] [Analog 1, sodium 19(S)-hydroxyeicosa-5(Z),14(Z)-dienoate]
Fold Change from 20-HETE ([1]; fold change of EC50 to PE): −0.68

CCL5: a proposed GPR75 ligand
ACE transcription (ACE mRNA) (ACE): did not induce

[N-]=[N+]=N[C@H](CO)CCC/C=C\CCCCCCC/C=C\CCCC(=O)[O-].[Na+] [Analog 5, Sodium 19(S)-azido-20-hydroxyeicosa-5(Z),14(Z)-dienoate]
Fold Change from 20-HETE ([1]; fold change of EC50 to PE): 0.16

C[C@@H](O)CCC/C=C\CCCCCCC/C=C\CCCC(=O)[O-].[Na+] [Analog 2, 19(R)-Hydroxyeicosa-5(Z),14(Z)-dienoate]
Fold Change from 20-HETE ([1]; fold change of EC50 to PE): −0.85

C[C@@H](O)CCC/C=C\CCCCCCC/C=C\CCCC(=O)NCC(=O)[O-].[Na+] [Analog 8, Sodium (19(R)-hydroxyeicosa-5(Z),14(Z)-dienoyl)glycinate]
Fold Change from 20-HETE ([1]; fold change of EC50 to PE): −4.67

Sodium 20-azido-19(R)-hydroxyeicosa-5(Z),14(Z)-dienoate [Analog 3]
Fold increase/decrese from 20-HETE ([1]; Table 2, fold change of EC50 to PE): −6.78

CC(O)CCC/C=C\CCCCCCCCCCCCC(=O)NCC(=O)[O-].[Na+] (centres unmarked) [Analog 14, Sodium (19-hydroxyeicosa-14(Z)-enoyl)glycinate]
Fold Change from 20-HETE ([1]; fold change of EC50 to PE): −2.56

CC(O)CCCCCCCCCCCC/C=C\CCCC(=O)[O-].[Na+] (centres unmarked) [Analog 11, Sodium 19-hydroxyeicosa-5(Z)-enoate]
Fold Change from 20-HETE ([1]; fold change of EC50 to PE): −1.66

CCC(O)CC/C=C\CCCCCCC/C=C\CCCC(=O)[O-].[Na+] (centres unmarked) [Analog 15, Sodium 18-hydroxyeicosa-5(Z),14(Z)-dienoate]
Fold Change from 20-HETE ([1]; fold change of EC50 to PE): −2.17

[N-]=[N+]=NC[C@@H](O)CCC/C=C\CCCCCCC/C=C\CCCC(=O)NS(=O)(=O)c1ccc(NC(=O)CCc2ccc(C(=O)c3ccccc3)cc2)cc1 [PCL, 20-azido-N-((4-(3-(4-benzoylphenyl)propanamido)phenyl)sulfonyl)-19(S)-hydroxyeicosa-5(Z),14(Z)-dienamide]
block of 20-HETE-mediated sensitization of PE vasoconstriction, change of EC50 to PE ([1]; FIG. 8b): 4 fold
Fold Change from 20-HETE ([1]; fold change of EC50 to PE): −3.28

C[C@H](O)CCC/C=C\CCCCCCC/C=C\CCCC(=O)NCC(=O)[O-].[Na+] [Analog 7, Sodium (19(S)-hydroxyeicosa-5(Z),14(Z)-dienoyl)glycinate]
Fold Change from 20-HETE ([1]; fold change of EC50 to PE): −3.46

O=C(O)CCC/C=C\C/C=C\C/C=C\C/C=C\CCCCCO [Analog 20-HETE, 20-hydroxyeicosa-5(Z),8(Z),11(Z),14(Z)-tetraenoic acid]
induction of TAFI expression [4]: 2-3 fold
ACE transcription (ACE mRNA) (ACE): increase in ACE mRNA
concentration range of maximal changes in NO bioavailability and ACE expression [5]: 5 to 10 nmol/L
association of c-Src with EGFR (EGFR; EC): increased
association of c-Src with GIT1 (EGFR; EC): decreased
increase of tyrosine phosphorylation of EGFR (EGFR; EC transduced with control siRNA): 1.99±0.16 fold
increase in EGFR phosphorylation (EGFR; FIG. 12d): 2-3 fold
GPR75 activation (β-arrestin recruitment) (GPR75 [6]): activated GPR75
competition with formation of the 47-49 kDa 20-APheDa band [3]: competed with
GPR75-HIC-5 dissociation (GPR75 [7]): 60%

O=C([O-])CCC/C=C\CCCCCCC/C=C\CCCCO.[Na+] [Analog 19, Sodium 19-hydroxynonadeca-5(Z),14(Z)-dienoate]
Fold Change from 20-HETE ([1]; fold change of EC50 to PE): −0.68

COCCOCCOCCOCCOCCOCCOC(=O)CCCC/C=C\CCCCCCC/C=C\CCCCO [20-6,15-SOLA, 2,5,8,11,14,17-hexaoxanonadecan-19-yl 20-hydroxyeicosa-6(Z),15(Z)-dienoate]
high-fat diet-induced hyperglycemia (Cyp4a14−/− mice; Cyp4a14−/− mice): normalized
high-fat diet-induced obesity (Cyp4a14−/− mice; Cyp4a14−/− mice): attenuates
hyperinsulinemia (Cyp4a14−/− mice; [8]): alleviates
hyperleptinemia (Cyp4a14−/− mice; [8]): alleviates
impaired coronary collateral growth (CCG) (JCR rats): attenuates
water solubility (Water solubility): water-soluble

[N-]=[N+]=NC[C@@H](O)CCC/C=C\CCCCCCC/C=C\CCCC(=O)[O-].[Na+] [Analog 4, sodium 20-azido-19(S)-hydroxyeicosa-5(Z),14(Z)-dienoate]
Fold Change from 20-HETE ([1]; fold change of EC50 to PE): −5.45

CC(O)CCC/C=C\CCCCCCC/C=C\CCCc1nnn[nH]1 (centres unmarked) [Analog 21, 19-(1H-Tetrazol-5-yl)nonadeca-6(Z),15(Z)-dien-2-ol]
Fold Change from 20-HETE ([1]; fold change of EC50 to PE): −0.78
